Measured values reported in PubChem BioAssay (NCI).
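All cell lines were grown in 96-well plates and treated with compound for 48 hours. The concentration for full growth arrest is given as TGI.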

Tests used:
Assay in all cases: growth of human tumour cells (NCI), 48 h
[1] = tested on: 786-0 renal
[2] = tested on: A498 renal
[3] = tested on: A549 NSCLC
[4] = tested on: ACHN renal
[5] = tested on: BT-549 breast
[6] = tested on: CAKI-1 renal
[7] = tested on: CCRF-CEM leukemia
[8] = tested on: COLO 205 colon
[9] = tested on: DU-145 prostate
[10] = tested on: EKVX NSCLC
[11] = tested on: HCC-2998 colon
[12] = tested on: HCT-116 colon
[13] = tested on: HCT-15 colon
[14] = tested on: HL-60(TB) leukemia
[15] = tested on: HOP-62 NSCLC
[16] = tested on: HOP-92 NSCLC
[17] = tested on: HS 578T breast
[18] = tested on: HT29 colon
[19] = tested on: K-562 leukemia
[20] = tested on: KM12 colon
[21] = tested on: LOX IMVI melanoma
[22] = tested on: M14 melanoma
[23] = tested on: MALME-3M melanoma
[24] = tested on: MCF7 breast
[25] = tested on: MDA-MB-231 breast
[26] = tested on: MDA-MB-435
[27] = tested on: MDA-N
[28] = tested on: MOLT-4 leukemia
[29] = tested on: NCI-H226 lung
[30] = tested on: NCI-H23 lung
[31] = tested on: NCI-H460 lung
[32] = tested on: NCI-H522 lung
[33] = tested on: NCI/ADR-RES ovarian
[34] = tested on: OVCAR-3 ovarian
[35] = tested on: OVCAR-4 ovarian
[36] = tested on: OVCAR-5 ovarian
[37] = tested on: OVCAR-8 ovarian
[38] = tested on: PC-3 prostate
[39] = tested on: SF-268 CNS
[40] = tested on: SF-295 CNS
[41] = tested on: SF-539 CNS
[42] = tested on: SK-MEL-2 melanoma
[43] = tested on: SK-MEL-28 melanoma
[44] = tested on: SK-MEL-5 melanoma
[45] = tested on: SK-OV-3 ovarian
[46] = tested on: SN12C renal
[47] = tested on: SNB-19 CNS
[48] = tested on: SNB-75 CNS
[49] = tested on: SR leukemia
[50] = tested on: SW-620 colon
[51] = tested on: T-47D breast
[52] = tested on: TK-10 renal
[53] = tested on: U251 CNS
[54] = tested on: UACC-257 melanoma
[55] = tested on: UACC-62 melanoma
[56] = tested on: UO-31 renal
[57] = tested on: IGROV1 ovarian
[58] = tested on: RPMI-8226 leukemia
[59] = tested on: RXF 393 renal

SMILES: CCOC(=O)CCC(NC(=O)Cc1ccc(Nc2nc3cc(F)c(F)cc3nc2C(=O)OCC)cc1)C(=O)OCC (configuration not stated)
- TGI [1]: > 100 µM
- TGI [2]: > 100 µM
- TGI [3]: > 100 µM
- TGI [4]: > 100 µM
- TGI [5]: > 100 µM
- TGI [6]: > 100 µM
- TGI [7]: 46.9 µM
- TGI [8]: > 100 µM
- TGI [9]: > 100 µM
- TGI [10]: > 100 µM
- TGI [11]: > 100 µM
- TGI [12]: > 100 µM
- TGI [13]: > 100 µM
- TGI [14]: 50 µM
- TGI [15]: > 100 µM
- TGI [16]: 82.1 µM
- TGI [17]: > 100 µM
- TGI [18]: > 100 µM
- TGI [19]: > 100 µM
- TGI [20]: > 100 µM
- TGI [21]: > 100 µM
- TGI [22]: > 100 µM
- TGI [23]: > 100 µM
- TGI [24]: > 100 µM
- TGI [25]: > 100 µM
- TGI [26]: > 100 µM
- TGI [27]: > 100 µM
- TGI [28]: > 100 µM
- TGI [29]: > 100 µM
- TGI [30]: > 100 µM
- TGI [31]: > 100 µM
- TGI [32]: > 100 µM
- TGI [33]: > 100 µM
- TGI [34]: > 100 µM
- TGI [35]: > 100 µM
- TGI [36]: > 100 µM
- TGI [37]: > 100 µM
- TGI [38]: > 100 µM
- TGI [39]: > 100 µM
- TGI [40]: > 100 µM
- TGI [41]: > 100 µM
- TGI [42]: 60.4 µM
- TGI [43]: > 100 µM
- TGI [44]: > 100 µM
- TGI [45]: > 100 µM
- TGI [46]: > 100 µM
- TGI [47]: > 100 µM
- TGI [48]: 77.2 µM
- TGI [49]: 55.9 µM
- TGI [50]: > 100 µM
- TGI [51]: 78.8 µM
- TGI [52]: > 100 µM
- TGI [53]: > 100 µM
- TGI [54]: > 100 µM
- TGI [55]: > 100 µM
- TGI [56]: > 100 µM

SMILES: CC(=O)c1ccccc1NP(=O)(c1ccccc1)c1ccccc1
- TGI [1]: > 100 µM
- TGI [2]: > 100 µM
- TGI [3]: > 100 µM
- TGI [4]: > 100 µM
- TGI [5]: > 100 µM
- TGI [6]: > 100 µM
- TGI [7]: > 100 µM
- TGI [8]: 34.4 µM
- TGI [9]: > 100 µM
- TGI [10]: > 100 µM
- TGI [11]: > 100 µM
- TGI [12]: > 100 µM
- TGI [13]: > 100 µM
- TGI [14]: 87.7 µM
- TGI [15]: > 100 µM
- TGI [17]: > 100 µM
- TGI [18]: > 100 µM
- TGI [57]: > 100 µM
- TGI [19]: > 100 µM
- TGI [20]: > 100 µM
- TGI [21]: > 100 µM
- TGI [22]: > 100 µM
- TGI [23]: > 100 µM
- TGI [24]: > 100 µM
- TGI [25]: > 100 µM
- TGI [26]: > 100 µM
- TGI [27]: > 100 µM
- TGI [28]: > 100 µM
- TGI [30]: > 100 µM
- TGI [31]: > 100 µM
- TGI [32]: > 100 µM
- TGI [33]: > 100 µM
- TGI [34]: > 100 µM
- TGI [35]: > 100 µM
- TGI [36]: > 100 µM
- TGI [37]: > 100 µM
- TGI [38]: > 100 µM
- TGI [58]: 62.8 µM
- TGI [59]: > 100 µM
- TGI [39]: > 100 µM
- TGI [40]: > 100 µM
- TGI [41]: > 100 µM
- TGI [42]: > 100 µM
- TGI [43]: > 100 µM
- TGI [44]: > 100 µM
- TGI [45]: 60.8 µM
- TGI [46]: > 100 µM
- TGI [47]: > 100 µM
- TGI [49]: > 100 µM
- TGI [50]: > 100 µM
- TGI [51]: > 100 µM
- TGI [52]: > 100 µM
- TGI [53]: > 100 µM
- TGI [54]: > 100 µM
- TGI [55]: > 100 µM
- TGI [56]: > 100 µM
